“And” between values parts separate entries of the source, which are not always exact repeats. Equal entries are not always repeated.
What was measured:
AfUGM [1] = target: T1, AfUGM (Aspergillus fumigatus, UniProt Q4W1X2); experiment: Stopped-flow kinetics of flavin reduction of AfUGM by NAD; format: biochemical; conditions: for kred / Kd / kred/Kd: AfUGM wild type; for kred / Kd: anaerobic, 15 °C; for kred: pH 7.0, flavin absorbance 452 nm; for Kd: pH 7.0, from fit of kobs; for kred/Kd: catalytic efficiency
AfUGM [2] = target: T1, AfUGM; experiment: Kinetic isotope effect on flavin reduction of AfUGM with deuterated coenzymes; format: biochemical
AfUGM S93A = AfUGM S93A (Aspergillus fumigatus, UniProt Q4W1X2, S93A); format: biochemical; conditions: S93A mutant
AfUGM R91A = AfUGM R91A (Aspergillus fumigatus, UniProt Q4W1X2, R91A); format: biochemical; conditions: R91A mutant
TcUGM = conditions: cited from earlier work
[3] = target: Mycobacterium tuberculosis UGM (Mycobacterium tuberculosis, UniProt P9WIQ1); experiment: Reduction of Mycobacterium tuberculosis UGM by NADPH; format: biochemical; conditions: estimated (Figure S5)
[4] = pro-R H atom substituted with D

Row | SMILES | kred (AfUGM [1]) | Kd (AfUGM [1]) [µM] | kred/Kd (AfUGM [1]) | KIE on flavin reduction (AfUGM [2]; [4]) | Kd (AfUGM S93A) [µM] | Variational Effect (kred/Kd of variant)/(kred/Kd of AfUGM) (AfUGM S93A) | kred/Kd (AfUGM S93A) [M⁻¹ s⁻¹] | kred (AfUGM S93A; anaerobic, 15 °C, pH 7.0) [s⁻¹] | Kd (AfUGM R91A) [µM] | Variational Effect (kred/Kd of variant)/(kred/Kd of AfUGM) (AfUGM R91A) | kred/Kd (AfUGM R91A) [M⁻¹ s⁻¹] | kred (AfUGM R91A; anaerobic, 15 °C, pH 7.0) [s⁻¹] | Kd (TcUGM) [µM] | kred (TcUGM) [s⁻¹] | kred/Kd (TcUGM) [M⁻¹ s⁻¹] | kred [3] [s⁻¹] | catalytic efficiency of AfUGM relative to TcUGM (AfUGM [1]; kred/Kd AfUGM vs TcUGM) [times] | KIE on flavin reduction (AfUGM [2]; pro-S deuterated coenzyme used to reduce AfUGM)
1 | NC(=O)C1=CN([C@@H]2O[C@H](COP(=O)(O)OP(=O)(O)OC[C@H]3O[C@@H](n4cnc5c(N)ncnc54)[C@H](O)[C@@H]3O)[C@@H](O)[C@H]2O)C=CC1 [NADH] | 0.2 s⁻¹ and 0.172 ± 0.003 s⁻¹ | 260 ± 20 | 670 M⁻¹ s⁻¹ and 670 ± 50 M⁻¹ s⁻¹ | 6.0 ± 0.7 |  |  |  |  |  |  |  |  |  |  |  |  |  | 
2 | NC(=O)C1=CN([C@@H]2O[C@H](COP(=O)(O)OP(=O)(O)OC[C@H]3O[C@@H](n4cnc5c(N)ncnc54)[C@H](OP(=O)(O)O)[C@@H]3O)[C@@H](O)[C@H]2O)C=CC1 [NADPH] | 3 s⁻¹ and 2.98 ± 0.078 s⁻¹ | 25 ± 2 | 120000 M⁻¹ s⁻¹ and 120000 ± 10000 M⁻¹ s⁻¹ | 3.0 ± 0.1 | 21 ± 8 | 0.07 ± 0.03 | 8000 ± 3000 | 0.17 ± 0.01 | 330 ± 20 | 0.008 ± 0.001 | 980 ± 70 | 0.313 ± 0.008 | 98 | 0.6 | 6000 | 0.00002 | 20 | 
3 | [2H]C1C=CN(C2OC(COP(=O)(O)OP(=O)(O)OCC3OC(n4cnc5c(N)ncnc54)C(OP(=O)(O)O)C3O)C(O)C2O)C=C1C(N)=O (stereo not shown) [pro-S NADPD] |  |  |  |  |  |  |  |  |  |  |  |  |  |  |  |  |  | 0.93 ± 0.03

From PMC3493617 (Journal of the American Chemical Society, 2012)
